“Also recorded” adds a separate entry of the source. Where two headings read alike, the source gives them in different places.
Assays:
[1] = cited from earlier work
[2] = biological target: CYP2D6 (Homo sapiens, UniProt P10635); settings: Table 3; cited from earlier work
[3] = cited from earlier work; remark: listed apart in the source
[4] = test system: CYP3A; settings: Table 3; cited from earlier work
[5] = biological target: CYP2C9 (Homo sapiens, UniProt P11712); settings: Table 3; cited from earlier work
[6] = biological target: CYP2C19 (Homo sapiens, UniProt P33261); settings: Table 3; cited from earlier work
[7] = test system: healthy volunteers; assay: ECG QTc assessment after ibutilide infusion in healthy volunteers; format: in vivo, human
Experimental: ECG analysis is one method of assessing arrhythmias, such as prolonged QT intervals. Ibutilide or any other pharmaceutical agent to be studied, can be assessed using an ECG. […] All ECGs were 12 lead and were recorded on a computer disc and on paper at a speed of 50 mm/sec, with the subject in a stationary, resting, supine position.

[8] = Table 2, FDA / medical literature

Chain of CYP2C19 (P33261 whole entry, the tested form may be a part): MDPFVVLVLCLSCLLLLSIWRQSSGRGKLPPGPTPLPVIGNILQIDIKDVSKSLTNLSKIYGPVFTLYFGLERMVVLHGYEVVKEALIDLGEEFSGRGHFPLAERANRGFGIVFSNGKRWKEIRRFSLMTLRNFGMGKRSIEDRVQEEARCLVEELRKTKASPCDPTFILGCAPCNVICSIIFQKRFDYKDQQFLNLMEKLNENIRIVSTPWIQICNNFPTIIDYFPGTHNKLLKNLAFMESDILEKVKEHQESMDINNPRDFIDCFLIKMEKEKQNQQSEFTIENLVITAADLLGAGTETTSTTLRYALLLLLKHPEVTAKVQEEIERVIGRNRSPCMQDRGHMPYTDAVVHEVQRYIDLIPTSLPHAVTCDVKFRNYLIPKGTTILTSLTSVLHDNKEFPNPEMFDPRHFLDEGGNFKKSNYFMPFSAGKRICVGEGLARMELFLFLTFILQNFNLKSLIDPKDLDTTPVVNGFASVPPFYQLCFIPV
Chain of CYP2D6 (P10635 whole entry): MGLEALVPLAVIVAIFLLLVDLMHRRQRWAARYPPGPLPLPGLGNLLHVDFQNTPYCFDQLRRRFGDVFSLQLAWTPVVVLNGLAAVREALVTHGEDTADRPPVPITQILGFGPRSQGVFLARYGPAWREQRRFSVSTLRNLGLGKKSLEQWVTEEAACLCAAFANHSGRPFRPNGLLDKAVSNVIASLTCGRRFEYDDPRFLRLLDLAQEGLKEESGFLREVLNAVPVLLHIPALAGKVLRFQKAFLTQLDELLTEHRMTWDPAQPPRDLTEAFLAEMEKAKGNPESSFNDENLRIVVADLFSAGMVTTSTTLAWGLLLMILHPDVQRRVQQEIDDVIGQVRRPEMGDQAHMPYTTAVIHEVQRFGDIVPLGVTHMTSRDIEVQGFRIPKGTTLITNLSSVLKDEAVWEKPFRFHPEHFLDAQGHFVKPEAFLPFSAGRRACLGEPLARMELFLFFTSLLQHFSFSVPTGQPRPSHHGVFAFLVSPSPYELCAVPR
Chain of CYP2C9 (P11712 whole entry): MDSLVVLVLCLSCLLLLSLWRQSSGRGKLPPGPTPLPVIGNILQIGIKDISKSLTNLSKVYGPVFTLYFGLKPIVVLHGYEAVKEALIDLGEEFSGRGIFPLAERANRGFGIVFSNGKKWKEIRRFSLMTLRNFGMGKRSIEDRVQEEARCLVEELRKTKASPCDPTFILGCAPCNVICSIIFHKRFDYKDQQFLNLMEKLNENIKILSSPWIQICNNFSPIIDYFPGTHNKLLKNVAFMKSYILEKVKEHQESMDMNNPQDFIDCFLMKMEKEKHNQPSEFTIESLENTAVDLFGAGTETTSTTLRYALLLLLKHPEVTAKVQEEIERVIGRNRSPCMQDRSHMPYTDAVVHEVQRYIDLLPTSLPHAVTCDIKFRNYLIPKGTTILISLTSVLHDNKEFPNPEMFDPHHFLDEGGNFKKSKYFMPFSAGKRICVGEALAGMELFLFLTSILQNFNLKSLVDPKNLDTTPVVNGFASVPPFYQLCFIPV

## CNCCC=C1c2ccccc2CCc2ccccc21 [Nortriptyline]
[1]; Table 2, drug labeling
  QT: Yes

## OCCN1CCN(CCCN2c3ccccc3Sc3ccc(Cl)cc32)CC1 [Perphenazine]
[1]; Table 2, drug labeling
  QT: Yes

## CCCCN(CCCC)CCC(O)c1cc2c(Cl)cc(Cl)cc2c2cc(C(F)(F)F)ccc12 (centres unmarked) [Halofantrine]
[2]
  Interactions: cytochrome P-450 isoform 2D6, substrate or inhibitor: Inhibitor
[1]; Table 2, drug labeling
  QT: Yes
[1]; Table 3
  QT: Yes

## Cc1nc2n(c(=O)c1CCN1CCC(c3noc4cc(F)ccc34)CC1)CCCC2 [Risperidone]
[1]; Table 2, drug labeling
  QT: Yes
[1]; Table 3
  QT: Yes
[3]; [8]
  TdP: Yes
[3]; Table 3
  TdP: Yes

## C[C@@H]1CN(c2c(F)c(N)c3c(=O)c(C(=O)O)cn(C4CC4)c3c2F)C[C@H](C)N1 [Sparfloxacin]
[1]; Table 2, drug labeling
  QT: Yes
[3]; [8]
  TdP: Yes

## CNCCCC12CCC(c3ccccc31)c1ccccc12 [Maprotiline]
[1]; Table 2, drug labeling
  QT: Yes
[3]; [8]
  TdP: Yes

## CN(C)CCCN1c2ccccc2CCc2ccccc21 [Imipramine]
[1]; Table 2, drug labeling
  QT: Yes
[1]; Table 3
  QT: Yes

## CN1CCC[C@@H]1CCO[C@](C)(c1ccccc1)c1ccc(Cl)cc1 [Clemastine]
[3]; [8]
  TdP: Maybe—
[3]; Table 3
  TdP: Maybe—

## CNCCCC1c2ccccc2C=Cc2ccccc21 [Protriptyline]
[1]; Table 2, drug labeling
  QT: Yes
[1]; Table 3
  QT: Yes

## C=C[C@H]1C[N@@]2CC[C@H]1C[C@@H]2[C@@H](O)c1ccnc2ccc(OC)cc12 [Quinidine]
[1]; Table 2, drug labeling
  QT: Yes
[1]; Table 3
  QT: Yes
[3]; [8]
  TdP: Yes
[3]; Table 3
  TdP: Yes
[4]
  Interactions: cytochrome P-450 isoform 3A, substrate or inhibitor: Substrate

## CC(C)COCC(CN(Cc1ccccc1)c1ccccc1)N1CCCC1 (centres unmarked) [Bepridil]
[1]; Table 2, drug labeling
  QT: Yes
[3]; [8]
  TdP: Yes

## CC(C)NCC(O)c1ccc(NS(C)(=O)=O)cc1 (centres unmarked) [Sotalol]
[1]; Table 2, drug labeling
  QT: Yes

## OCCN1CCN(CCCN2c3ccccc3Sc3ccc(C(F)(F)F)cc32)CC1 [Fluphenazine]
[1]; Table 2, drug labeling
  QT: Yes
[1]; Table 3
  QT: Yes
[3]; [8]
  TdP: Yes
[3]; Table 3
  TdP: Yes

## COC(=O)C1=C(C)NC(C)=C(C(=O)OC(C)C)C1c1cccc2nonc12 (centres unmarked) [Isradipine]
[1]; Table 2, drug labeling
  QT: Yes

## C[C@]12CCC(=O)C=C1CC[C@H]1[C@@H]3CC[C@](O)(C(=O)CO)[C@@]3(C)C[C@H](O)[C@@]12F [Fludrocortisone]
[1]; Table 2, drug labeling
  QT: Yes

## CCCCc1oc2ccccc2c1C(=O)c1cc(I)c(OCCN(CC)CC)c(I)c1 [Amiodarone]
[3]; [8]
  TdP: Yes
[3]; Table 3
  TdP: Yes

## OCc1cc(C(O)CNCCCCCCOCCCCc2ccccc2)ccc1O (centres unmarked) [Salmeterol]
[1]; Table 2, drug labeling
  QT: Yes

## CNS(=O)(=O)CCc1ccc2[nH]cc(C3CCN(C)CC3)c2c1 [Naratriptan]
[1]; Table 2, drug labeling
  QT: Yes

## CNCCC(Oc1ccc(C(F)(F)F)cc1)c1ccccc1 (centres unmarked) [Fluoxetine]
[5]
  Interactions: cytochrome P-450 isoform 2C9, substrate or inhibitor: Substrate
[1]; Table 2, drug labeling
  QT: Yes
[1]; Table 3
  QT: Yes
[6]
  Interactions: cytochrome P-450 isoform 2C19, substrate or inhibitor: Inhibitor
[4]
  Interactions: cytochrome P-450 isoform 3A, substrate or inhibitor: Inhibitor

## CC(=O)N1CCN(c2ccc(OCC3COC(Cn4ccnc4)(c4ccc(Cl)cc4Cl)O3)cc2)CC1 (centres unmarked) [Ketoconazole]
[6]
  Interactions: cytochrome P-450 isoform 2C19, substrate or inhibitor: Inhibitor
[4]
  Interactions: cytochrome P-450 isoform 3A, substrate or inhibitor: Inhibitor

## CN1CCCC(n2nc(Cc3ccc(Cl)cc3)c3ccccc3c2=O)CC1 (centres unmarked) [Azelastine]
[1]; Table 2, drug labeling
  QT: Yes

## CCN(CC)CCNC(=O)c1ccc(N)cc1 [Procainamide]
[1]; Table 2, drug labeling
  QT: Yes

## CCOC(=O)Nc1ccc2c(c1)N(C(=O)CCN1CCOCC1)c1ccccc1S2 [Moricizine]
[3]; [8]
  TdP: Yes

## CCCCCCCN(CC)CCCC(O)c1ccc(NS(C)(=O)=O)cc1 (centres unmarked) [Ibutilide]
[7]; 0.003 mg/kg intravenous single dose
  Duration of QTc prolonging effect: almost dissipated by the end of two hours
[7]; men versus women by menstrual phase, p<0.05
  Mean QTc prolongation over time (AUC, 60 minutes after infusion): significantly smaller in men than in women; also recorded: significantly lower for women during the luteal phase and for men
[7]; men, 0.003 mg/kg intravenous single dose
  Maximal change in QTc interval after infusion: 54 ± 28 ms
[7]; women, luteal phase, 0.003 mg/kg intravenous single dose
  Maximal change in QTc interval after infusion: 53 ± 14 ms
[7]; women, menstrual phase, 0.003 mg/kg intravenous single dose
  Maximal change in QTc interval after infusion: 63 ± 13 ms
[7]; women, ovulation phase, 0.003 mg/kg intravenous single dose
  Maximal change in QTc interval after infusion: 59 ± 17 ms
[1]; Table 2, drug labeling
  QT: Yes
[3]; [8]
  TdP: Yes

## CCC(C)n1ncn(-c2ccc(N3CCN(c4ccc(OCC5COC(Cn6cncn6)(c6ccc(Cl)cc6Cl)O5)cc4)CC3)cc2)c1=O (centres unmarked) [Itraconazole]
[4]
  Interactions: cytochrome P-450 isoform 3A, substrate or inhibitor: Inhibitor

## CN(C)CCC=C1c2ccccc2COc2ccccc21 [Doxepin]
[1]; Table 2, drug labeling
  QT: Yes
[3]; [8]
  TdP: Yes

## Clc1ccc2nsnc2c1NC1=NCCN1 [Tizanidine]
[1]; Table 2, drug labeling
  QT: Yes

## O=C(NCC1CCCCN1)c1cc(OCC(F)(F)F)ccc1OCC(F)(F)F (centres unmarked) [Flecainide]
[2]
  Interactions: cytochrome P-450 isoform 2D6, substrate or inhibitor: Substrate
[1]; Table 2, drug labeling
  QT: Yes
[1]; Table 3
  QT: Yes

## CN(C)CCCN1c2ccccc2Sc2ccc(Cl)cc21 [Chlorpromazine]
[1]; Table 2, drug labeling
  QT: Yes
[3]; [8]
  TdP: Yes

## CC1Cc2ccccc2N1NC(=O)c1ccc(Cl)c(S(N)(=O)=O)c1 (centres unmarked) [Indapamide]
[1]; Table 2, drug labeling
  QT: Yes
[3]; [8]
  TdP: Maybe—

## CC(C)N(CCC(C(N)=O)(c1ccccc1)c1ccccn1)C(C)C (centres unmarked) [Disopyramide]
[1]; Table 2, drug labeling
  QT: Yes
[3]; [8]
  TdP: Yes

## COc1ccc(CCN2CCC(Nc3nc4ccccc4n3Cc3ccc(F)cc3)CC2)cc1 [Astemizole]
[1]; Table 2, drug labeling
  QT: Yes
[1]; Table 3
  QT: Yes
[3]; [8]
  TdP: Yes
[3]; Table 3
  TdP: Yes
[4]
  Interactions: cytochrome P-450 isoform 3A, substrate or inhibitor: Substrate

## O=c1[nH]c2ccccc2n1C1CCN(CCCC(c2ccc(F)cc2)c2ccc(F)cc2)CC1 [Pimozide]
[1]; Table 2, drug labeling
  QT: Yes
[3]; [8]
  TdP: Yes

## CNS(=O)(=O)Cc1ccc2[nH]cc(CCN(C)C)c2c1 [Sumatriptan]
[1]; Table 2, drug labeling
  QT: Yes

## CC[C@H]1OC(=O)[C@H](C)[C@@H](O[C@H]2C[C@@](C)(OC)[C@@H](O)[C@H](C)O2)[C@H](C)[C@@H](O[C@@H]2O[C@H](C)C[C@H](N(C)C)[C@H]2O)[C@](C)(OC)C[C@@H](C)C(=O)[C@H](C)[C@@H](O)[C@]1(C)O [Clarithromycin]
[1]; Table 2, drug labeling
  QT: Yes
[1]; Table 3
  QT: Yes

## Cc1cccc(C)c1NC(=O)C(C)N (centres unmarked) [Tocainide]
[1]; Table 2, drug labeling
  QT: Yes

## COc1ccc(C(CN(C)C)C2(O)CCCCC2)cc1 (centres unmarked) [Venlafaxine]
[2]
  Interactions: cytochrome P-450 isoform 2D6, substrate or inhibitor: Substrate
[1]; Table 2, drug labeling
  QT: Yes
[1]; Table 3
  QT: Yes

## CNCCCN1c2ccccc2CCc2ccccc21 [Desipramine]
[2]
  Interactions: cytochrome P-450 isoform 2D6, substrate or inhibitor: Substrate
[1]; Table 2, drug labeling
  QT: Yes
[1]; Table 3
  QT: Yes

## OC(Cn1cncn1)(Cn1cncn1)c1ccc(F)cc1F [Fluconazole]
[5]
  Interactions: cytochrome P-450 isoform 2C9, substrate or inhibitor: Inhibitor
[4]
  Interactions: cytochrome P-450 isoform 3A, substrate or inhibitor: Inbibilor

## CN(C)CCc1c[nH]c2ccc(C[C@H]3COC(=O)N3)cc12 [Zolmitriptan]
[1]; Table 2, drug labeling
  QT: Yes

## NC(=O)OCC(COC(N)=O)c1ccccc1 [Felbamate]
[1]; Table 2, drug labeling
  QT: Yes?
[1]; Table 3
  QT: Yes
[3]; [8]
  TdP: Yes
[3]; Table 3
  TdP: Yes
[6]
  Interactions: cytochrome P-450 isoform 2C19, substrate or inhibitor: Inhibitor

## CN1CCN(CC/C=C2/c3ccccc3Sc3ccc(S(=O)(=O)N(C)C)cc32)CC1 [Thiothixene]
[1]; Table 2, drug labeling
  QT: Yes
[3]; [8]
  TdP: Yes

## COC(=O)C1=C(C)NC(C)=C(C(=O)OCCN(C)Cc2ccccc2)C1c1cccc([N+](=O)[O-])c1 (centres unmarked) [Nicardipine]
[1]; Table 2, drug labeling
  QT: Yes

## O=C(O)P(=O)(O)O [Foscarnet]
[1]; Table 2, drug labeling
  QT: Yes

## O=C1NC(c2ccccc2)(c2ccccc2)C(=O)N1COP(=O)(O)O [Fosphenytoin]
[1]; Table 2, drug labeling
  QT: Yes

## Clc1ccc2c(c1)C(N1CCNCC1)=Nc1ccccc1O2 [Amoxapine]
[1]; Table 2, drug labeling
  QT: Yes

## N=C(N)c1ccc(OCCCCCOc2ccc(C(=N)N)cc2)cc1 [Pentamidine]
[3]; [8]
  TdP: Yes

## CC[C@H]1OC(=O)[C@H](C)[C@@H](O[C@H]2C[C@@](C)(OC)[C@@H](O)[C@H](C)O2)[C@H](C)[C@@H](O[C@@H]2O[C@H](C)C[C@H](N(C)C)[C@H]2O)[C@](C)(O)C[C@@H](C)C(=O)[C@H](C)[C@@H](O)[C@]1(C)O [Erythromycin]
[1]; Table 2, drug labeling
  QT: Yes
[1]; Table 3
  QT: Yes

## OCCOCCN1CCN(C2=Nc3ccccc3Sc3ccccc32)CC1 [Quetiapine]
[1]; Table 2, drug labeling
  QT: Yes

## COc1cc(N)c(Cl)cc1C(=O)NC1CCN(CCCOc2ccc(F)cc2)CC1OC (centres unmarked) [Cisapride]
[1]; Table 2, drug labeling
  QT: Yes
[1]; Table 3
  QT: Yes
[3]; [8]
  TdP: Yes
[3]; Table 3
  TdP: Yes
[4]
  Interactions: cytochrome P-450 isoform 3A, substrate or inhibitor: Substrate

## CN1CCN(CCCN2c3ccccc3Sc3ccc(C(F)(F)F)cc32)CC1 [Trifluoperazine]
[1]; Table 2, drug labeling
  QT: Yes
[3]; [8]
  TdP: Yes

Reference: patent publication US7179597B2, “Genetic diagnosis for QT prolongation related adverse drug reactions” (Georgetown University, priority 2000, dated 2007)
